Assay results published in patent publication US7462600B2, “Macrolides” (Pfizer Inc, priority 2004, dated 2008).
≈ marks a conversion by molar mass, not a printed value. Where two headings read alike, the source gives them in different places.

Experiments:
Format in all cases: cell-based
[1] = test system: Streptococcus pneumoniae 1175; details: microtiter broth dilution
Method: (§1) The assay described herein includes a panel of bacterial strains assembled to include a variety of target pathogenic species, including representatives of macrolide resistance mechanisms that have been characterized. In many cases, both the macrolide-susceptible parent strain and the macrolide-resistant strain derived from it are available to provide a more accurate assessment of the compound's ability to circumvent the resistance mechanism. The assay is performed in microtiter trays and interpreted according to Performance Standards for Antimicrobial Susceptibility Testing; 14th Informational Supplement (M100-S14), published by The National Committee for Clinical Laboratory Standards (NCCLS) guidelines; the MIC is used to compare strains. Compounds are initially dissolved in DMSO as 40 mg/ml stock solutions.

[2] = test system: Streptococcus pneumoniae 1095; details: microtiter broth dilution
Method: as §1

[3] = test system: Streptococcus pyogenes 1079; assay: MIC, microtiter broth dilution (NCCLS M100-S14), S. pyogenes 1079 (ermB)
Method: as §1

[4] = test system: Streptococcus pneumoniae 1016; assay: MIC, microtiter broth dilution (NCCLS M100-S14), S. pneumoniae 1016 (susceptible)
Method: as §1

[5] = test system: Haemophilus influenzae 1218; assay: MIC, microtiter broth dilution (NCCLS M100-S14), H. influenzae 1218 (susceptible)
Method: as §1

[6] = S. pneumoniae 1016 (susceptible)
[7] = H. influenzae 1218 (susceptible)

SMILES | MIC S. pneumo. 1175 ([1]; S. pneumoniae 1175 (mefA)) [µg/mL] | MIC S. pneumo. 1095 ([2]; S. pneumoniae 1095 (ermB)) [µg/mL] | MIC S. pyogenes 1079 ([3]; S. pyogenes 1079 (ermB)) [µg/mL] | MIC S. pneumo. 1016 [4, 6] [µg/mL] | MIC H. influenzae 1218 [5, 7] [µg/mL] | MIC S. pneumo. 1175 ([1]; Streptococcus pneumoniae 1175) [µg/mL] | MIC S. pneumo. 1095 ([2]; Streptococcus pneumoniae 1095) [µg/mL] | MIC S. pyogenes 1079 ([3]; Streptococcus pyogenes 1079) [µg/mL] | MIC S. pneumo. 1016 ([4]; Streptococcus pneumoniae 1016) [µg/mL] | MIC H. influenzae 1218 ([5]; Haemophilus influenzae 1218) [µg/mL]
CC[C@H]1OC(=O)[C@H](C)C(=O)[C@H](C)[C@@H](O[C@@H]2O[C@H](C)C[C@H](N(C)C)[C@H]2O)[C@](C)(OC)C[C@@H](C)C(=O)[C@H](C)[C@H]2N(CC3(C)CN(C(=O)c4cnc5ccccc5c4)C3)C(=O)O[C@]12C.O=CO [6.12] | 0.12 | 0.25 | >64.00 | <0.06 | – | – | – | – | – | –
CC[C@H]1OC(=O)[C@H](C)C(=O)[C@H](C)[C@@H](O[C@@H]2O[C@H](C)C[C@H](N(C)C)[C@H]2O)[C@](C)(OC)C[C@@H](C)C(=O)[C@H](C)[C@H]2N(CC3(C)CN(C(=O)c4ccnc5ccccc45)C3)C(=O)O[C@]12C.O=CO [6.13] | <0.06 | 8 | >64.00 | <0.06 | – | – | – | – | – | –
CC[C@H]1OC(=O)[C@H](C)C(=O)[C@H](C)[C@@H](O[C@@H]2O[C@H](C)C[C@H](N(C)C)[C@H]2O)[C@](C)(OC)C[C@@H](C)C(=O)[C@H](C)[C@H]2N(CC3(C)CN(C(=O)c4cccc5ncccc45)C3)C(=O)O[C@]12C.O=CO [6.14] | 0.25 | 8 | >64.00 | <0.06 | – | – | – | – | – | –
CC[C@H]1OC(=O)[C@H](C)C(=O)[C@H](C)[C@@H](O[C@@H]2O[C@H](C)C[C@H](N(C)C)[C@H]2O)[C@](C)(OC)C[C@@H](C)C(=O)[C@H](C)[C@H]2N(CC3(C)CN(C(=O)c4ccc5ncccc5c4)C3)C(=O)O[C@]12C.O=CO [6.15] | 2 | 8 | >64.00 | <0.06 | – | – | – | – | – | –
CC[C@H]1OC(=O)[C@H](C)C(=O)[C@H](C)[C@@H](O[C@@H]2O[C@H](C)C[C@H](N(C)C)[C@H]2O)[C@](C)(OC)C[C@@H](C)C(=O)[C@H](C)[C@H]2N(CC3(C)CN(C(=O)c4ccc5cccnc5c4)C3)C(=O)O[C@]12C.O=CO [6.16] | 0.12 | 0.12 | >64.00 | <0.06 | – | – | – | – | – | –
CC[C@H]1OC(=O)[C@H](C)C(=O)[C@H](C)[C@@H](O[C@@H]2O[C@H](C)C[C@H](N(C)C)[C@H]2O)[C@](C)(OC)C[C@@H](C)C(=O)[C@H](C)[C@H]2N(CC3(C)CN(C(=O)c4cccc5cccnc45)C3)C(=O)O[C@]12C.O=CO [6.17] | 0.12 | >64.00 | >64.00 | <0.06 | – | – | – | – | – | –
CC[C@H]1OC(=O)[C@H](C)C(=O)[C@H](C)[C@@H](O[C@@H]2O[C@H](C)C[C@H](N(C)C)[C@H]2O)[C@](C)(OC)C[C@@H](C)C(=O)[C@H](C)[C@H]2N(CC3(C)CN(C(=O)c4nc5ccccc5[nH]4)C3)C(=O)O[C@]12C.O=CO [6.18] | 0.25 | 0.25 | >64.00 | <0.06 | – | – | – | – | – | –
CC[C@H]1OC(=O)[C@H](C)C(=O)[C@H](C)[C@@H](O[C@@H]2O[C@H](C)C[C@H](N(C)C)[C@H]2O)[C@](C)(OC)C[C@@H](C)C(=O)[C@H](C)[C@H]2N(CC3(C)CN(C(=O)c4ccc5ncsc5c4)C3)C(=O)O[C@]12C.O=CO [6.19] | 0.5 | 1 | >64.00 | <0.06 | – | – | – | – | – | –
CC[C@H]1OC(=O)[C@H](C)C(=O)[C@H](C)[C@@H](O[C@@H]2O[C@H](C)C[C@H](N(C)C)[C@H]2O)[C@](C)(OC)C[C@@H](C)C(=O)[C@H](C)[C@H]2N(CC3(C)CN(C(=O)c4cncc5ccccc45)C3)C(=O)O[C@]12C.O=CO [6.20] | 0.5 | 64 | >64.00 | <0.06 | – | – | – | – | – | –
CC[C@H]1OC(=O)[C@H](C)C(=O)[C@H](C)[C@@H](O[C@@H]2O[C@H](C)C[C@H](N(C)C)[C@H]2O)[C@](C)(OC)C[C@@H](C)C(=O)[C@H](C)[C@H]2N(CC3(C)CN(C(=O)c4cccc(-n5cccn5)n4)C3)C(=O)O[C@]12C.O=CO [6.21] | 0.5 | 16 | >64.00 | <0.06 | – | – | – | – | – | –
CC[C@H]1OC(=O)[C@H](C)C(=O)[C@H](C)[C@@H](O[C@@H]2O[C@H](C)C[C@H](N(C)C)[C@H]2O)[C@](C)(OC)C[C@@H](C)C(=O)[C@H](C)[C@H]2N(CC3(C)CN(C(=O)c4cc5cccnc5[nH]4)C3)C(=O)O[C@]12C [6.23] | 0.25 (≈ 0.298 µM) | <0.06 | 64 (≈ 76.2 µM) | <0.06 | – | – | – | – | – | –
CCC1OC(=O)C(C)C(=O)C(C)C(OC2OC(C)CC(N(C)C)C2O)C(C)(OC)CC(C)C(=O)C(C)C2N(CC3CCN(Cc4cccc5cccnc45)C3)C(=O)OC12C (stereo not shown) [11.12] | <0.06 | <0.06 | – | <0.06 | <0.06 | – | – | – | – | –
CCC1OC(=O)C(C)C(=O)C(C)C(OC2OC(C)CC(N(C)C)C2O)C(C)(OC)CC(C)C(=O)C(C)C2N(CC3CCN(Cc4cccc5cnccc45)C3)C(=O)OC12C (stereo not shown) [11.13] | <0.06 | <0.06 | – | <0.06 | 0.25 (≈ 0.299 µM) | – | – | – | – | –
CCC1OC(=O)C(C)C(=O)C(C)C(OC2OC(C)CC(N(C)C)C2O)C(C)(OC)CC(C)C(=O)C(C)C2N(C3CN(Cc4ccc5ncccc5c4)C3)C(=O)OC12C (stereo not shown) [Example 1.07, (quinolin-6-yl)methyl] | – | – | – | – | – | 0.25 (≈ 0.309 µM) | <0.06 | 16 (≈ 19.8 µM) | <0.06 | –
CCC1OC(=O)C(C)C(=O)C(C)C(OC2OC(C)CC(N(C)C)C2O)C(C)(OC)CC(C)C(=O)C(C)C2N(C3CN(Cc4ccc(F)c(F)c4)C3)C(=O)OC12C (stereo not shown) [Example 1.08, 3,4-difluorobenzyl] | – | – | – | – | – | 0.25 (≈ 0.315 µM) | 0.5 (≈ 0.63 µM) | >64.00 | <0.06 | –
CCC1OC(=O)C(C)C(=O)C(C)C(OC2OC(C)CC(N(C)C)C2O)C(C)(OC)CC(C)C(=O)C(C)C2N(C3CN(Cc4nc5ccccc5[nH]4)C3)C(=O)OC12C (stereo not shown) [Example 1.09, (1H-benzo[d]imidazo-2-yl)methyl] | – | – | – | – | – | 0.25 (≈ 0.313 µM) | <0.06 | >64.00 | <0.06 | –
CCC1OC(=O)C(C)C(=O)C(C)C(OC2OC(C)CC(N(C)C)C2O)C(C)(OC)CC(C)C(=O)C(C)C2N(C3CN(Cc4ccn(-c5ccccn5)n4)C3)C(=O)OC12C (stereo not shown) [Example 1.10] | – | – | – | – | – | 0.12 (≈ 0.145 µM) | <0.06 | >64.00 | <0.06 | –
CCC1OC(=O)C(C)C(=O)C(C)C(OC2OC(C)CC(N(C)C)C2O)C(C)(OC)CC(C)C(=O)C(C)C2N(C3CN(C(COC)c4ccnc5ncccc45)C3)C(=O)OC12C (stereo not drawn) [Example 1.81, 3-descladinosyl-11,12-dideoxy-4-O-methyl-3-oxo-12,11-(oxycarbonyl-(1-(2-(methoxy)-1R-(1,8-napthyridin-4-yl)-ethyl)-azetidin-3-yl)-imino)-erythromycin A] | – | – | – | – | – | <0.063 | 0.5 (≈ 0.585 µM) | 4 (≈ 4.68 µM) | <0.063 | –
CCC1OC(=O)C(C)C(=O)C(C)C(OC2OC(C)CC(N(C)C)C2O)C(C)(OC)CC(C)C(=O)C(C)C2N(C3CN(Cc4c(F)cccc4OC)C3)C(=O)OC12C (stereo not shown) [Example 1.85, 3-descladinosyl-11,12-dideoxy-6-O-methyl-3-oxo-12,11-(oxycarbonyl-(1-(1-fluoro-3-methoxybenzene-2-methyl)-azetidin-3-yl)-imino)-erythromycin A] | – | – | – | – | – | – | – | 16 (≈ 19.9 µM) | <0.063 | 2 (≈ 2.48 µM)
CCC1OC(=O)C(C)C(=O)C(C)C(OC2OC(C)CC(N(C)C)C2O)C(C)(OC)CC(C)C(=O)C(C)C2N(C3CN(Cc4c(F)cccc4F)C3)C(=O)OC12C (stereo not shown) [Example 1.87, 3-descladinosyl-11,12-dideoxy-6-O-methyl-3-oxo-12,11-(oxycarbonyl-(1-(1,3-difluorobenzene-2-methyl)-azetidin-3-yl)-imino)erythromycin A] | – | – | – | – | – | – | – | 8 (≈ 10.1 µM) | <0.063 | 0.5 (≈ 0.63 µM)
CCC1OC(=O)C(C)C(=O)C(C)C(OC2OC(C)CC(N(C)C)C2O)C(C)(OC)CC(C)C(=O)C(C)C2N(CC3CN(C(=O)c4cccc5cccnc45)C3)C(=O)OC12C (stereo not shown) [Example 4.34, 3-descladinosyl-11,12-dideoxy-6-O-methyl-3-oxo-12,11-(oxycarbonyl-((1-(quinoline-8-carbonyl)-azetidin-3-yl)-methyl)-imino)-erythromycin A] | – | – | – | – | – | 1 (≈ 1.19 µM) | 1 (≈ 1.19 µM) | – | <0.06 | 0.25 (≈ 0.299 µM)
